Results: patent US20250002491A1, “N,N-DIMETHYL-4-(7-(N-(1-METHYLCYCLOPROPYL)SULFAMOYL)-IMIDAZO[1,5-A]PYRIDIN-5-YL)PIPERAZINE-1-CARBOXAMIDE DERIVATIVES AND THE CORRESPONDING PYRAZOLO[1,5-A]PYRIDINE DERIVATIVES AS PARG INHIBITORS FOR THE TREATMENT OF CANCER” (FORX THERAPEUTICS AG, priority 2021, published 2025)
Read-outs that look alike come from different tables or passages of the source.

Assays:
[1] = test system: NCIH-460 cells; assay: Cellular viability assay (Cell Titer-Glo), NCIH-460; assay type: cell-based; settings: Homo sapiens, NCI-H460; NCIH-460 (PARG-inhibition sensitive), 96 hours of incubation; read-out: EC50 in μM determined in NCIH-460 cells as described under Cellular viability assay
Experimental: (§1) NCIH-460 as a PARG-inhibition sensitive cell line and U2OS as PARG-inhibition insensitive cell line were plated at 1000 cells/well and 2000 cells/well, respectively, in 96-well white plates with clear flat bottom. After 24 hours, the compounds were added with the Tecan digital dispenser (D300e), in duplicates. The outer wells of the plate were excluded. After 96 hours of incubation, 150 μl of the growth medium were removed and 50 μl of Cell Titer-Glo (Promega) were added per well. Following an incubation of 10 minutes, luminescence was read using a plate reader (Tecan). Averaged values of the samples were normalized to DMSO treated control samples. Curves were fit as % of the control vs. log of the compound concentration using a 4 parameter log-logistic function: […]

[2] = biological target: T1, hPARG (Homo sapiens, UniProt Q86W56, A967T/C963S/D927K/H446G/I916T/L447S/L473S/M841I/N479S/R811K/S802A/S858P/T924D); assay: PARG enzymatic IC50 assay (absorbance, ADP-ribose-pNP substrate); assay type: biochemical; settings: 2 hours incubation of enzyme with compound; 30 nM hPARG, 800 μM ADP-pNP; read-out: IC50 in μM determined in PARG enzymatic assay (PARG protein and 2 hours incubation)
T1 construct: human PARG (448-976 [H446G, L447S, L473S, N479S); 6His-TwinStrep (protease-cleavable) (N, cleaved yes); host or cells: E. coli BL21 (DE3)
T1 sequence (Q86W56 446-976 H446G/L447S/L473S/N479S/S802A/R811K/M841I/S858P/I916T/T924D/D927K/C963S/A967T): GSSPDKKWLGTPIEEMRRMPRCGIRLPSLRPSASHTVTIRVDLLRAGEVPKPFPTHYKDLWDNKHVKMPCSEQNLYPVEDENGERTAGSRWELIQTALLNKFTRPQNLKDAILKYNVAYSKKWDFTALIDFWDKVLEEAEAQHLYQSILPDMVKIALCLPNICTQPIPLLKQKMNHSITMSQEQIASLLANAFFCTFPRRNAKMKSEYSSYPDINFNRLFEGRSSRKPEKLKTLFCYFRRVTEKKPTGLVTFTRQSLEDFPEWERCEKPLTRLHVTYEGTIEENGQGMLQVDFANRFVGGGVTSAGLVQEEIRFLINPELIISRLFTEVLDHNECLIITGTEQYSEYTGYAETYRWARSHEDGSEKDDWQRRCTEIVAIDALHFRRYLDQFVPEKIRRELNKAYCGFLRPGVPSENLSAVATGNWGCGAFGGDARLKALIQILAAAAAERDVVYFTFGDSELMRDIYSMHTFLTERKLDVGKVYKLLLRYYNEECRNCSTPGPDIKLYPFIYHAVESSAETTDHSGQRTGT
Experimental: A codon optimized gene encoding human PARG (448-976 [H446G, L447S, L473S, N479S, S802A, R811K, M841I, S858P, 1916T, T924D, D927K, C963S, A967T]) was synthesized by Genscript, and cloned into pET15b (Ncol/BamHI) with an N-terminal, Thrombin protease cleavable 6His-TwinStrep tag. Expression of the protein in E. coli BL21 (DE3) was induced by addition of 0.2 mM IPTG to a shake flask culture grown to OD600=0.8 at 37° C. Growth was allowed to continue at 30° C. for a further 20 hours before harvesting by centrifugation and storage of the cell pellet at −80° C.
Protein was purified by IMAC and SEC: frozen cell pellets (typically 40 g wet weight) were resuspended by homogenization in 5 volumes buffer A (25 mM Tris/HCl pH 8.0, 200 mM NaCl, 2 mM DTT), supplemented with 1 mg of DNase I from bovine pancreas (Sigma-Aldrich) and protease inhibitors (Roche Complete™ EDTA-free protease inhibitor tablet), and lysed by passage through a Constant Systems BasicZ homogenizer. The lysate was clarified by centrifugation for 60 minutes at 25,000 g, 4° C., and the lysate supernatant was loaded onto 5 ml StrepTrap HP (Cytiva) pre-equilibrated with buffer A. The column was washed with buffer A (˜10 CV), then buffer B containing 1M KCl (˜5 CV), and then the protein was eluted with buffer A containing 2.5 mM d-Desthiobiotin. Pooled fractions containing 6HisTwinStrep-TEV-hPARG were incubated with TEV protease overnight at 4° C. hPARG was separated from uncleaved material and Thrombin protease through gel filtration with Superdex75 sizing column (GE Healthcare) pre-equilibrated with SEC buffer (15 mM Tris/HCl pH 8.5, 100 mM NaCl, 2 mM DTT). Pooled fractions containing pure hPARG were concentrated using a 10 k MWCO spin concentrator (VivaSpin) to 10 mg/mL, and then either used immediately for crystallisation or snap-frozen in liquid nitrogen for storage at −80° C.
PARG Enzymatic IC50 Assay
PARG enzyme as incubated with compound or vehicle (DMSO) for 15 minutes or 2 hours in a 384 well plate. After adding the PARG substrate ADP-ribose-pNP, the plate was read for absorbance intensity at 405 nm. The vehicle (DMSO) with high absorbance intensity represents no inhibition of enzymatic reaction while the low control (no enzyme) with low absorbance intensity represents full inhibition of enzymatic reaction.
• hPARG: Peak Protein, 30 nM • Substrate: ADP-pNP, 800 μM, Jena Bioscience catalog #NU-955 • Reaction time: 60 minutes • Assay buffer: 50 mM Tris-HCl pH 8.0, 100 mM NaCl, 2 mM DTT • Temperature: 30° C. • Total volume: 30 μL
• 0% inhibition control: DMSO • 100% inhibition control: No enzyme
The protocol that was used for enzyme reaction and detection is as follows: • 1. Transfer 100 nL of the final concentration of test compounds or vehicle (DMSO) to the appropriate wells of a microtiter plate. • 2. Centrifuge the plate at 1000 rpm for 1 minute. • 3. Transfer 14.6 μL of 2× final concentration of enzyme in assay buffer or assay buffer alone to the appropriate wells. • 4. Centrifuge the plate at 1000 rpm for 1 minute. • 5. Incubate the plate at room temperature for 15 minutes or 2 hours. • 6. Transfer 15.4 μL of 2× substrate in assay buffer to all the test wells. • 7. Centrifuge the plate at 1000 rpm for 1 minute. • 8. Read the plate on a plate reader (e.g., Spark Tecan).

[3] = test system: U2OS cells; assay: Cellular viability assay (Cell Titer-Glo), U2OS; assay type: cell-based; settings: Homo sapiens; U2OS (PARG-inhibition insensitive), 96 hours of incubation; read-out: EC50 in μM determined in U2OS cells as described under Cellular viability assay
Experimental: as §1

[4] = test system: PARG in U2OS cells; assay: Cellular PAR chain assay (flow cytometry, PAR chain positive cells); assay type: cell-based; settings: 1 hour compound pretreatment
Experimental: The ability of compounds to inhibit PARG in response to DNA damage, was assessed with U2OS cells pretreated with the compounds for 1 hour, following a 1-hour treatment with or without the DNA alkylating agent temozolomide (TMZ). […] The cells were incubated for 2 hours at room temperature with a mouse monoclonal antibody against poly (ADP) ribose (PAR) polymer. The cells were washed and incubated with an anti-mouse Alexa-488 conjugated secondary antibody for 1 hour at room temperature. Propidium iodide staining was used to determine DNA content in the cells (staining at 4° C. overnight). The fluorescence intensity of the cells was assessed by flow cytometry (Cytoflex from Beckmann) and the percentage of PAR chain positive cells (gated in relation to TMZ+DMSO treated control) was determined. PAR chain positive cells % were fit against the concentration of the compound using a 4 parameter log-logistic function, generating PAR chain EC50 values: […]

[5] = without TMZ, read-out: EC50 in μM determined in cellular assay as described under Cellular PAR chain assay (conditions without treatment of TMZ)
[6] = Homo sapiens, then 1-hour treatment with TMZ, read-out: EC50 in μM determined in cellular assay as described under Cellular PAR chain assay (conditions with treatment of TMZ)

| SMILES | IC50 [2] [µM] | EC50 [3] [µM] | EC50 [4, 5] [µM] | EC50 [4, 6] [µM] | EC50 [1] [µM] |
| --- | --- | --- | --- | --- | --- |
| Cc1ccc(-c2ncn3c(N4CCN(C(=O)N(C)C)CC4)cc(S(=O)(=O)NC4(C)CC4)cc23)cn1 [Example 1, N,N-dimethyl-4-(7-(N-(1-methylcyclopropyl)sulfamoyl)-1-(6-methylpyridin-3-yl)imidazo[1,5-a]pyridin-5-yl)piperazine-1-carboxamide] | 0.064 | > 16.8 | > 10 | 1.1 | 13.4 |
| CN(C)C(=O)N1CCN(c2cc(S(=O)(=O)NC3(C)CC3)cc3c(-c4nnc(C(F)F)o4)cnn23)CC1 [Example 11, 4-(3-(5-(difluoromethyl)-1,3,4-oxadiazol-2-yl)-5-(N-(1-methylcyclopropyl)sulfamoyl)pyrazolo[1,5-a]pyridin-7-yl)-N,N-dimethylpiperazine-1-carboxamide] | 0.098 | > 20 | > 10 | 0.739 | 4.58 |
| Cc1ccc(-c2cnn3c(N4CCN(C(=O)N(C)C)CC4)cc(S(=O)(=O)NC4(C)CC4)cc23)cn1 [Example 5, N,N-dimethyl-4-(5-(N-(1-methylcyclopropyl)sulfamoyl)-3-(6-methylpyridin-3-yl)pyrazolo[1,5-a]pyridin-7-yl)piperazine-1-carboxamide] | 0.054 | > 20 | > 10 | 0.223 | 3.22 |
| CN(C)C(=O)N1CCN(c2cc(S(=O)(=O)NC3(C)CC3)cc3c(-c4ccc(C(F)F)nc4)ncn23)CC1 [Example 3, 4-(1-(6-(difluoromethyl)pyridin-3-yl)-7-(N-(1-methylcyclopropyl)sulfamoyl)imidazo[1,5-a]pyridin-5-yl)-N,N-dimethylpiperazine-1-carboxamide] | 0.066 | > 20 | > 10 | 0.218 | 4.47 |

Now those with a lower IC50 [2], led by results:

| IC50 [2] [µM] | EC50 [3] [µM] | EC50 [4, 5] [µM] | EC50 [4, 6] [µM] | SMILES | EC50 [1] [µM] |
| --- | --- | --- | --- | --- | --- |
| 0.043 | > 20 |  |  | COC(=O)c1cnn2c(N3CCN(C(=O)N(C)C)CC3)cc(S(=O)(=O)NC3(C)CC3)cc12 [Example 8, Methyl 7-(4-(dimethylcarbamoyl)piperazin-1-yl)-5-(N-(1-methylcyclopropyl)sulfamoyl)pyrazolo[1,5-a]pyridine-3-carboxylate] | 7.22 |
| 0.028 | > 20 | > 10 | 0.328 | CN(C)C(=O)N1CCN(c2cc(S(=O)(=O)NC3(C)CC3)cc3c(-c4ccc(C(F)F)nc4)cnn23)CC1 [Example 7, 4-(3-(6-(difluoromethyl)pyridin-3-yl)-5-(N-(1-methylcyclopropyl)sulfamoyl)pyrazolo[1,5-a]pyridin-7-yl)-N,N-dimethylpiperazine-1-carboxamide] | 3.94 |
| 0.042 | > 20 | > 10 | 0.266 | CN(C)C(=O)N1CCN(c2cc(S(=O)(=O)NC3(C)CC3)cc3c(-c4nnc(C(F)F)s4)cnn23)CC1 [Example 10, 4-(3-(5-(difluoromethyl)-1,3,4-thiadiazol-2-yl)-5-(N-(1-methylcyclopropyl)sulfamoyl)pyrazolo[1,5-a]pyridin-7-yl)-N,N-dimethylpiperazine-1-carboxamide] | 1.3 |
| 0.038 | > 20 | > 10 | 1.49 | Cc1nnc(-c2cnn3c(N4CCN(C(=O)N(C)C)CC4)cc(S(=O)(=O)NC4(C)CC4)cc23)s1 [Example 12, N,N-dimethyl-4-(3-(5-methyl-1,3,4-thiadiazol-2-yl)-5-(N-(1-methylcyclopropyl)sulfamoyl)pyrazolo[1,5-a]pyridin-7-yl)piperazine-1-carboxamide] | 6.05 |
